Read-outs that look alike come from different tables or passages of the source.
Legend:
[1] = system: human colon carcinoma cell line CX-1; experiment: Colony formation assay, human colon carcinoma CX-1; type: cell-based; conditions: for IC50: Homo sapiens, Colon carcinoma cell; for IC50 / CX-1 (IC50): 24 h treatment, colony count after 7 to 10 days; for Selectivity (ratio of IC50 for CV-1 and IC50 for CX-1): CV-1/CX-1
Protocol: (§2) Human colon carcinoma cell line CX-1 or normal monkey kidney epithelial cell line CV-1 was chosen as representatives of cancer cells and normal cells, respectively. […] CX-1 cells (2,000 cells/well) and CV-1 cells (1,000 cells/well) were plated in 24-well plastic culture plates. […] The control received culture media only. Cells were treated with compounds of General Formulas (1) to (6) at 37° C. for 24 hours. After rinsing with fresh culture medium three times, the cells were further incubated at 37° C. for 7 to 10 days. Cell colonies were fixed and stained with 2% crystal violet in 70% ethanol for 10 minutes and rinsed in water. […] The selectivity is defined as the ratio of IC50 for CV-1 and IC50 for CX-1.

[2] = system: human melanoma LOX cell line; experiment: Colony formation assay, human melanoma LOX; type: cell-based; conditions: for IC50: Homo sapiens, LOX, 24 h, read-out: LOX (IC50); for Selectivity (CV-1 IC50 / LOX IC50): CV-1/LOX
From the text: (§1) The control received culture media only.

[3] = system: human breast carcinoma MCF-7 cell line; experiment: Colony formation assay, human breast carcinoma MCF-7; type: cell-based; conditions: for IC50: Homo sapiens, MCF7, 24 h, read-out: MCF-7 (IC50); for Selectivity (CV-1 IC50 / MCF-7 IC50): CV-1/MCF-7
From the text: as §1
The Selectivity values, MCF-7 values and CV-1 values for compounds of the General Formulas (1) to (6) used in the present invention are shown in Table VI below.

[4] = system: human pancreatic carcinoma CRL 1420 cell line; experiment: Colony formation assay, human pancreatic carcinoma CRL 1420; type: cell-based; conditions: Table VII; for IC50: Homo sapiens, 24 h; for IC50 / CRL-1420 (IC50): 24 h treatment; for Selectivity (CV-1 IC50 / CRL-1420 IC50): CV-1/CRL-1420
From the text: as §1
The Selectivity values, CRL 1420 values and CV-1 values for compounds of the General Formulas (1) to (6) used in the present invention are shown in Table VII below.

[5] = system: normal monkey kidney epithelial cell line CV-1; experiment: Colony formation assay, normal monkey kidney epithelial cells CV-1; conditions: for IC50: Primates, Epithelial cell;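 as to all read-outs here: colonies visualized by crystal violet staining, incubation at 37 °C, IC50 relative to untreated wells given culture medium alone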
Protocol: as §2

[6] = system: human bladder carcinoma EJ cell line; experiment: Colony formation assay, human bladder carcinoma EJ; type: cell-based; conditions: for IC50: Homo sapiens, EJ, 24 h, read-out: EJ (IC50); for Selectivity (CV-1 IC50 / EJ IC50): CV-1/EJ
From the text: as §1

[7] = system: human melanoma LOX; experiment: Survival of nude mice implanted with human melanoma LOX; type: in vivo, human melanoma in male athymic Swiss nu/nu mouse; conditions: Mus musculus, ip, 24 h, read-out: T/C (survival)
Protocol: LOX, a human melanoma cell line, grown subcutaneously in nude mice was excised, trypsinized to yield a single cell suspension using a metal grid with a […]. Red blood cells were lysed by incubation with 0.17 molar ammonium chloride at 4° C. for 20 minutes. Five million viable trypan blue negative cells made up in 0.1 ml of Dulbecco modified Eagles' medium (DME) were injected into the peritoneal cavity of a male athymic Swiss nu/nu mouse. The control group and each treatment group consisted of 5 to 10 mice. Treatment was commenced the following day by intraperitoneal injection.
Ten control mice received 0.25 ml of 2% dextrose on those days the treated groups were injected with the compounds of this invention. The compounds of the General Formulas. (1) to (6) used in this invention which were tested are listed in Table VIII below and the results obtained are shown in Table VIII and FIG. 1-6 of the accompanying drawings. T/C is the ratio, expressed as a percentage of the mean survival age of the treated group to the mean survival age of the untreated control group.

[8] = read-out: CX-1 (IC50), Table III
[9] = Table III, read-out: CX-1 (IC50)
[10] = read-out: CV-1 (IC50), Table III, 24 h treatment, colony count after 7 to 10 days
[11] = read-out: CV-1 (IC50), Table IV
[12] = read-out: CV-1 (IC50), Table VI
[13] = read-out: CV-1 (IC50), Table VII

Compound	Selectivity (ratio of IC50 for CV-1 and IC50 for CX-1) ([1]; Table III)	IC50 ([2]; Table V, 24 h treatment)	Selectivity (CV-1 IC50 / LOX IC50) ([2]; Table V)	IC50 ([3]; Table VI, 24 h treatment)	Selectivity (CV-1 IC50 / MCF-7 IC50) ([3]; Table VI)	IC50 [4]	Selectivity (CV-1 IC50 / CRL-1420 IC50) [4]	IC50 [1, 9]	IC50 ([6]; Table IV, 24 h treatment)	Selectivity (CV-1 IC50 / EJ IC50) ([6]; Table IV)	IC50 [5, 10]	IC50 [5, 11]	IC50 ([5]; read-out: CV-1 (IC50), Table V)	IC50 [5, 13]	also measured
CCN1C(=CC=c2sc(=Cc3sc4ccc5ccccc5c4[n+]3CC)n(CC)c2=O)N(CC)c2ccccc21 [Compound 234]	333	0.03 µg/mL	333	0.05 µg/mL	200	0.03 µg/mL	333	–	–	–	–	–	–	–	IC50 [1, 8]: 0.03 µg/mL; IC50 ([5]; read-out: CV-1 (IC50)): 10 µg/mL
CCN1C(=CC=c2sc(=Cc3sc4c5ccccc5ccc4[n+]3CC)n(CC)c2=O)N(CC(F)(F)C(F)F)c2cc(C(F)(F)F)ccc21 [Compound 230]	375	0.06 µg/mL	200	–	167	0.05 µg/mL	300	0.05 µg/mL	0.05 µg/mL	300	15 µg/mL	15 µg/mL	15 µg/mL	15 µg/mL	IC50 [3]: 0.09 µg/mL; IC50 [5, 12]: 15 µg/mL
CCN1C(=CC=c2sc(=Cc3sc4ccccc4[n+]3CC)n(CC)c2=O)Sc2ccc3ccccc3c21 [Compound 178]	200	–	–	–	435	–	154	–	–	–	–	–	–	–	CX-1 (IC50) ([1]; Table III): 0.01 µg/mL; MCF-7 (IC50) ([3]; Table VI, 24 h treatment): 0.0046 µg/mL; CRL-1420 (IC50) [4]: 0.013 µg/mL; CV-1 (IC50) ([5]; Table III, 24 h treatment, colony count after 7 to 10 days): 2 µg/mL; CV-1 (IC50) ([5]; Table VI): 2 µg/mL; CV-1 (IC50) ([5]; Table VII): 2 µg/mL
CCN1C=CC=CC1=CC=c1sc(=Cc2sc3ccc4ccccc4c3[n+]2CC)n(CC)c1=O [Compound 278]	333	0.035 µg/mL	286	–	111	0.04 µg/mL	250	–	–	–	–	–	–	–	CX-1 (IC50) ([1]; Table III): 0.03 µg/mL; IC50 [3]: 0.09 µg/mL; IC50 ([5]; read-out: CV-1 (IC50)): 10 µg/mL
CCN1C(=CC=c2sc(=Cc3sc4c5ccccc5ccc4[n+]3CC)n(CC)c2=O)N(CC)c2cc(Cl)ccc21 [Compound 235]	> 400	–	–	–	–	–	–	0.05 µg/mL	–	500	> 20 µg/mL	–	–	–	IC50 [6]: 0.02 µg/mL; IC50 ([5]; read-out: CV-1 (IC50)): 10 µg/mL
CCn1c(=Cc2sc3ccccc3[n+]2CC)sc(=CC=C2N(C)c3ccccc3C2(C)C)c1=O [Compound 206]	600	0.03 µg/mL	196	0.048 µg/mL	125	0.03 µg/mL	196	0.01 µg/mL	0.013 µg/mL	462	6 µg/mL	6 µg/mL	6 µg/mL	6 µg/mL	IC50 [5, 12]: 6 µg/mL
CCN1C(C)=CSC1=CC=c1sc(=Cc2sc3c4ccccc4ccc3[n+]2CC)n(CC)c1=O [Compound 97]	200	–	133	–	–	–	–	0.01 µg/mL	0.013 µg/mL	154	2 µg/mL	2 µg/mL	2 µg/mL	–	IC50 [2]: 0.015 µg/mL
CCN1CCSC1=CC=c1sc(=Cc2sc3ccc(OC)cc3[n+]2CC)n(CC)c1=O [Compound 125]	200	0.06 µg/mL	133	0.06 µg/mL	133	0.05 µg/mL	160	0.04 µg/mL	0.06 µg/mL	133	–	8 µg/mL	8 µg/mL	8 µg/mL	IC50 [5, 12]: 8 µg/mL
CCN1CCSC1=CC=c1sc(=Cc2sc3ccccc3[n+]2CCOC)n(CC)c1=O [Compound 145]	200	0.064 µg/mL	156	0.1 µg/mL	100	0.082 µg/mL	122	0.05 µg/mL	0.082 µg/mL	122	–	–	–	–	IC50 ([5]; read-out: CV-1 (IC50)): 10 µg/mL
CCN1C(=CC=c2sc(=Cc3sc4c5ccccc5ccc4[n+]3C)n(CC)c2=O)Sc2ccc3ccccc3c21 [Compound 49]	667	0.075 µg/mL	267	0.06 µg/mL	333	0.075 µg/mL	267	–	0.045 µg/mL	444	–	20 µg/mL	20 µg/mL	20 µg/mL	CX-1 (IC50) ([1]; Table III): 0.03 µg/mL; IC50 [5, 12]: 20 µg/mL
CCN1C(=CC=c2sc(=CC3=[N+](CC)CCS3)n(CC)c2=O)C=Cc2ccccc21 [Compound 244]	–	–	–	–	–	–	–	–	–	–	–	–	–	–	response vs control in vivo at 10 mg/kg ([7]; 10 mg/kg, i.p. on day 1, 3, 5, 7, 9): 153%
CCN1CCSC1=CC=c1sc(=Cc2sc3ccc(Cl)cc3[n+]2CC)n(CC)c1=O [Compound 123]	200	–	–	–	–	0.13 µg/mL	154	–	0.13 µg/mL	154	20 µg/mL	20 µg/mL	–	20 µg/mL	IC50 [1, 8]: 0.1 µg/mL
CCN1CCSC1=CC=c1sc(=Cc2sc3ccc(C)cc3[n+]2CC)n(CC)c1=O [Compound 124]	167	0.04 µg/mL	125	–	–	0.04 µg/mL	125	–	0.05 µg/mL	100	5 µg/mL	5 µg/mL	5 µg/mL	5 µg/mL	IC50 [1, 8]: 0.03 µg/mL
CCN1C(=CC=c2sc(=Cc3sc4ccccc4[n+]3CC)n(CC)c2=O)Sc2ccc3ccccc3c21 [Compound 37]	250	0.05 µg/mL	100	–	100	–	167	0.02 µg/mL	0.03 µg/mL	167	–	5 µg/mL	5 µg/mL	–	MCF-7 (IC50) ([3]; Table VI, 24 h treatment): 0.05 µg/mL; CRL-1420 (IC50) [4]: 0.03 µg/mL
CCn1c(=Cc2sc3ccccc3[n+]2CC)sc(=CC=C2SCCN2C)c1=O [Compound 141]	400	0.064 µg/mL	312	0.184 µg/mL	109	0.045 µg/mL	444	0.05 µg/mL	–	–	20 µg/mL	–	20 µg/mL	20 µg/mL	IC50 [5, 12]: 20 µg/mL
CCn1c(=Cc2sc3ccc(Cl)cc3[n+]2CC)sc(=CC=C2N(C)c3ccccc3C2(C)C)c1=O [Compound 214]	267	0.04 µg/mL	200	–	–	0.04 µg/mL	200	–	0.04 µg/mL	200	–	8 µg/mL	8 µg/mL	8 µg/mL	IC50 [1, 8]: 0.03 µg/mL
CCn1c(=Cc2sc(-c3ccccc3)c(-c3ccccc3)[n+]2CC)sc(=CC=C2N(C)c3ccccc3C2(C)C)c1=O [Compound 204]	–	–	–	–	–	–	–	–	–	–	–	–	–	–	response vs control in vivo at 5 mg/kg ([7]; 5 mg/kg, i.p. on day 1, 4, 7, 10, 13, 16, 19, 22): 174%

— patent US5861424A, “Composition and method for treating cancer” (priority 1995, dated 1999)
